Series [1] in a line: Stimulation of soluble guanylate cyclase (sGC) using baculovirus expressed and partially purified bovine sGC at 1 uM concentration relative to benzydamine.
The species entered for series [2] is Homo sapiens. The series is described as follows: Percent inhibition of collagen stimulated platelet aggregation at a concentration of 10 uM. Type of series: functional.
Series [3] can be described thus: Bioavailability in rat (dose 2 mg/kg p.o.). Type of series: ADME, organism-based. The conditions noted are these: in vivo, po.
For series [4], the species on record is Homo sapiens. Put plainly: Concentration required to inhibit collagen induced platelet aggregation by 50%. Type of series: functional, organism-based.
For series [5], the system named is Rattus norvegicus. The series is described as follows: Area under curve at the dose of 2 mg/Kg administered perorally in rats. The following applies: in vivo, po. Type of series: ADME, organism-based.
Series [6] in a line: Cmax at the dose of 2 mg/Kg administered perorally in rats. Type of series: ADME, organism-based. Also noted: dose 2 mg/Kg, route oral. The conditions noted are these: rat, in vivo, po.
Series [7] is described as follows: Tmax at the dose of 2 mg/Kg administered perorally in rats. Type of series: ADME, organism-based. The following applies: rat, in vivo, po.
A short description of series [8]: Tmax at the dose of 5 mg/Kg administered perorally in rats. Type of series: ADME, organism-based. The following applies: rat, in vivo, po.
Series [9] can be described thus: Cmax at the dose of 5 mg/Kg administered perorally in rats. Type of series: ADME, organism-based. Details: dose 5 mg/Kg, route oral. The following applies: rat, in vivo, po.
Series [10] deals with Rattus norvegicus. The series is described as follows: Area under curve at the dose of 5 mg/Kg administered perorally in rats. Type of series: ADME, organism-based. The following applies: in vivo, po.
A short description of series [11]: Percent bioavailability at the dose of 5 mg/Kg administered perorally in rats. Type of series: ADME, organism-based. The following applies: rat, in vivo, po.
The target of series [12] is Soluble guanylate cyclase (Homo sapiens, UniProt O75343+P33402+Q02108+Q02153). Put plainly: The cGMP produced by compound was expressed as a ratio between the percentage of the DEA/NO response for the compound. Type of series: protein-complex assay.
Sequence of Soluble guanylate cyclase (Q02153 whole entry): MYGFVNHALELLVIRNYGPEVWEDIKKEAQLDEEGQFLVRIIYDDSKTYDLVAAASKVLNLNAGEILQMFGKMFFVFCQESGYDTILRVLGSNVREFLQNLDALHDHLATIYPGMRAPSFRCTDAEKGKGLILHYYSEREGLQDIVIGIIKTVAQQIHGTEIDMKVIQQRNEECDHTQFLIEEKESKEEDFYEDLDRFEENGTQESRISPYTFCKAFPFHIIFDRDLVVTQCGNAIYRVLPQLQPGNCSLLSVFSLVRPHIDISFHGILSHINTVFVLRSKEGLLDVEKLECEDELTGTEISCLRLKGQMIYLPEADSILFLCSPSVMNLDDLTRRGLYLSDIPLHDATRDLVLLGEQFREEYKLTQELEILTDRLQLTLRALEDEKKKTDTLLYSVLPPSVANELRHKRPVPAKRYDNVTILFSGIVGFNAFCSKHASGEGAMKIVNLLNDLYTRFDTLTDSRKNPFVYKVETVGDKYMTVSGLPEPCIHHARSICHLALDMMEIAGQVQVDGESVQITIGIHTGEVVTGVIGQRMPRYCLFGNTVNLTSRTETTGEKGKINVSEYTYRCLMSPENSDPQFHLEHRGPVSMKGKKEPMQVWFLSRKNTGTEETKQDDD
Sequence of Soluble guanylate cyclase (O75343 whole entry): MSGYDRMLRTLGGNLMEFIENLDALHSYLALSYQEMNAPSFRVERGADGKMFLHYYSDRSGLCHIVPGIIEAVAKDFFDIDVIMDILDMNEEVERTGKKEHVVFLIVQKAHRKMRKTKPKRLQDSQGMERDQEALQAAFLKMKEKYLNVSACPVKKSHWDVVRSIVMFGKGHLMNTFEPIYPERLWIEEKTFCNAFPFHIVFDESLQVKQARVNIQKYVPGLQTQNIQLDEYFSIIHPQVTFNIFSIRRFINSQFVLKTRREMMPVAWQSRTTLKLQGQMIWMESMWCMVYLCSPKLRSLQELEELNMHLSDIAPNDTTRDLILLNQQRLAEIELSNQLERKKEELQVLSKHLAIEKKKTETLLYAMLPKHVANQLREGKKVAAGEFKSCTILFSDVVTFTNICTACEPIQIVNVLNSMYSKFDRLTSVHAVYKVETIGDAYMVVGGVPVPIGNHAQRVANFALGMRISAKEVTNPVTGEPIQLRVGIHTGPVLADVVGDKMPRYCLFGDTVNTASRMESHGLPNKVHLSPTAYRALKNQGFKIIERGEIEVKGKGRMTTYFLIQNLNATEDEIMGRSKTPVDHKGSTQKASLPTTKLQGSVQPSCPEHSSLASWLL
Sequence of Soluble guanylate cyclase (P33402 whole entry): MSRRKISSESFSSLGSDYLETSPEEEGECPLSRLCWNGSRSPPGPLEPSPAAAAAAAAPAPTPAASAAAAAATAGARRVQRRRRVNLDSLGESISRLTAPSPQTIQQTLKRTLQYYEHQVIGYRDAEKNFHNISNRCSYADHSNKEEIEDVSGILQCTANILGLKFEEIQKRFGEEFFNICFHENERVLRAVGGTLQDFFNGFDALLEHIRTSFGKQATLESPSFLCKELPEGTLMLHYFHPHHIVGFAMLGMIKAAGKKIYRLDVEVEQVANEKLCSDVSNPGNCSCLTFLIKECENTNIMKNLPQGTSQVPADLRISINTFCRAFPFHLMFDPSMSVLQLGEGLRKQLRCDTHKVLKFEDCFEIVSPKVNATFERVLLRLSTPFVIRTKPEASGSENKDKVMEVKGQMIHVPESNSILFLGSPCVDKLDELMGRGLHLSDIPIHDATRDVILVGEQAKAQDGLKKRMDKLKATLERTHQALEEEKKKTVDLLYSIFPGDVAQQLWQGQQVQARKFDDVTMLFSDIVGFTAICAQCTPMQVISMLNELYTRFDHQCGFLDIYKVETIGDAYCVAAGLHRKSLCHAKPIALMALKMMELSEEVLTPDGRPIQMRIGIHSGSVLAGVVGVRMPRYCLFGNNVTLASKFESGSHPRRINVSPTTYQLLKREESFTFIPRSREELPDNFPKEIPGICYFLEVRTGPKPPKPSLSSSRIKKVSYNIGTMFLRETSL
Sequence of Soluble guanylate cyclase (Q02108 whole entry): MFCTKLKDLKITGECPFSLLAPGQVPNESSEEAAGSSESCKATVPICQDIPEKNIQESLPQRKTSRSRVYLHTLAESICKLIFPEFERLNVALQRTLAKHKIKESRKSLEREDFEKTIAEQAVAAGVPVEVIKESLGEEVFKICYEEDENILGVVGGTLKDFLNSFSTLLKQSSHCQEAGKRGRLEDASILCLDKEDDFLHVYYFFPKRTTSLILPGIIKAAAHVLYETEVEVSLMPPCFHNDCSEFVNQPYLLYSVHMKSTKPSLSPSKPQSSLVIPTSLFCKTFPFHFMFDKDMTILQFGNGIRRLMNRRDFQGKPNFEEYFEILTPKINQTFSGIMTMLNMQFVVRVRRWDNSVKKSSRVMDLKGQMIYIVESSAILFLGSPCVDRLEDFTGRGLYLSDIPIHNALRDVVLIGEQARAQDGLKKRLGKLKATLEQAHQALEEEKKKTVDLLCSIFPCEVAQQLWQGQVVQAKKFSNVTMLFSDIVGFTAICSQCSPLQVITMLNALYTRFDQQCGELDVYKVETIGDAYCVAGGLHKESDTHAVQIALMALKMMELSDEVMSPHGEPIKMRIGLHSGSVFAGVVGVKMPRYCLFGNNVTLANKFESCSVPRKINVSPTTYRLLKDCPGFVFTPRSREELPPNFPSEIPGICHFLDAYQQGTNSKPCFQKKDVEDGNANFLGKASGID

In series [1], `CN(C)CCCOc1cc(C(=O)Nc2ccc(-c3csnn3)cc2)n(Cc2ccccc2)n1` came in with a Relative enzyme activity of 0.81. Besides, the inhibition (as a rule, the relative decrease from the control value, in per cent) at 10 µM in the series filed under Homo sapiens [2] turned out to be 96%.
For `CN(C)CCCOc1cc(C(=O)Nc2cccc(Cl)c2)n(Cc2ccccc2)n1`, in that order: 0.93 and 95%.
For `CN(C)CCCOc1cc(C(=O)Nc2nccc3ccccc23)n(Cc2ccccc2)n1` the same measures were 1.31 and 80%.
For `CN(C)CCCOc1cc(C(=O)Nc2ccc3ccccc3n2)n(Cc2ccccc2)n1`, in that order: 0.97 and 57%.
In [1], `CN(C)CCCOc1cc(C(=O)Nc2ccc(OC(F)(F)F)cc2)n(Cc2ccccc2)n1` returned a Relative enzyme activity of 0.93. In addition, 10 µM produced 85% inhibition in the series listed under Homo sapiens [2].
On to `COc1cc(NC(=O)c2cc(OCCCN(C)C)nn2Cc2ccccc2)cc(OC)c1OC`, for which the Relative enzyme activity in series [1] is 0.96. For the same molecule, testing at 10 µM in the series listed under Homo sapiens [2] gave an inhibition of 66%.
On to `COc1ccc(-c2ccccc2)cc1NC(=O)c1cc(OCCCN(C)C)nn1Cc1ccccc1`, for which the bioavailability (usually dose-corrected exposure relative to a reference, in per cent) in [3] stood at 22%. The molecule also gave a Relative enzyme activity in [1] of 0.86. Also, the IC50 (as a rule, the midpoint of a concentration-inhibition curve) in the series listed under Homo sapiens [4] is 2760 nM. The AUC (commonly the area under the concentration-time curve, a measure of exposure) in the series with Rattus norvegicus [5] amounted to 130 ng·h/mL. In the series filed under Homo sapiens [2], this molecule came in with an inhibition at 10 µM of 95%. Besides, in [6], the Cmax – broadly, the maximum level reached in the sampled fluid or tissue – is 18 ng/mL. Besides, the time to peak (Tmax) (commonly the time at which the peak concentration occurs) in series [7] came out at 7.3 h.
Molecule `CN(C)CCCOc1cc(C(=O)Nc2ccn(-c3ccccc3)n2)n(Cc2ccccc2)n1` showed a Relative enzyme activity in series [1] of 0.71. The same molecule gave an inhibition at 10 µM in the series filed under Homo sapiens [2] of 75%.
For `CN(C)CCCOc1cc(C(=O)Nc2nc3ccccc3[nH]2)n(Cc2ccccc2)n1`, in that order: 0.74 and 13%.
The molecule `CN(C)CCCOc1cc(C(=O)Nc2cnc3ccccc3c2)n(Cc2ccccc2)n1` yielded a bioavailability in series [3] of 19%. For the same molecule, the Relative enzyme activity in series [1] came to 0.91. The molecule also gave an IC50 in the series listed under Homo sapiens [4] of 3270 nM. Also, the AUC in the series with Rattus norvegicus [5] is 95 ng·h/mL. The molecule also had an inhibition at 10 µM in the series listed under Homo sapiens [2] of 95%. In series [6], this molecule yielded a Cmax of 14.3 ng/mL. In addition, the time of peak concentration (Tmax) in [7] worked out at 5 h.
`CN(C)CCCOc1cc(C(=O)Nc2nccs2)n(Cc2ccccc2)n1`: in series [1], the Relative enzyme activity turned out to be 1.06. Besides, the inhibition at 10 µM in the series filed under Homo sapiens [2] was determined as 27%.
With `COc1cc(NC(=O)c2cc(OCCCN(C)C)nn2Cc2ccccc2)cc(OC)c1`, the Relative enzyme activity in series [1] is 0.72. Also, testing at 10 µM in the series listed under Homo sapiens [2] gave an inhibition of 87%.
For `CN(C)CCCOc1cc(C(=O)Nc2cc(F)cc(C(F)(F)F)c2)n(Cc2ccccc2)n1` the same measures were 0.9 and 43%.
`CN(C)CCCOc1cc(C(=O)Nc2ccc(Cl)cc2F)n(Cc2ccccc2)n1` displayed a Relative enzyme activity in [1] of 0.91. In the series listed under Homo sapiens [2], this molecule registered an inhibition at 10 µM of 96%.
With `COc1cccc(NC(=O)c2cc(OCCCN(C)C)nn2Cc2ccccc2)c1`, in series [1], the Relative enzyme activity came to 0.74. In addition, at 10 µM the inhibition in the series listed under Homo sapiens [2] was 96%.
`COc1ccc(NC(=O)c2cc(OCCCN(C)C)nn2Cc2ccccc2)cc1` came in with a Relative enzyme activity in series [1] of 1.1. This molecule registered a 50% inhibitory concentration (IC50) in the series filed under Homo sapiens [4] of 2840 nM. For the same molecule, the Tmax in [8] came to 2.7 h. This molecule gave a Cmax in [9] of 6.4 ng/mL. In the series with Rattus norvegicus [10], this molecule had an AUC of 61.1 ng·h/mL. In addition, the bioavailability in series [11] came to 12%. In addition, at 10 µM the inhibition in the series listed under Homo sapiens [2] was 83%.
Take `CN(C)CCCOc1cc(C(=O)Nc2cc(F)cc(F)c2)n(Cc2ccccc2)n1`: in series [1], the Relative enzyme activity came out at 0.76. This molecule had an inhibition at 10 µM in the series listed under Homo sapiens [2] of 44%.
For `CN(C)CCCOc1cc(C(=O)Nc2ccc3c(c2)C(=O)N(C)C3=O)n(Cc2ccccc2)n1` the same measures were 0.81 and 64%.
`CN(C)CCCOc1cc(C(=O)Nc2ccccc2F)n(Cc2ccccc2)n1` gave a Relative enzyme activity in series [1] of 1.02. This molecule also displayed an inhibition at 10 µM in the series listed under Homo sapiens [2] of 58%.
For `CN(C)CCCOc1cc(C(=O)Nc2nc3c(s2)CCCC3)n(Cc2ccccc2)n1`, in that order: 0.85 and 92%.
With `CN(C)CCCOc1cc(C(=O)Nc2ccc3[nH]ccc3c2)n(Cc2ccccc2)n1`, the Relative enzyme activity in series [1] was found to be 0.91. For the same molecule, testing at 10 µM in the series filed under Homo sapiens [2] gave an inhibition of 66%.
As to `COc1ccc(NC(=O)c2cc(OCCCN(C)C)nn2Cc2ccccc2)cc1Cl`, the bioavailability in [3] turned out to be 11%. For the same molecule, the Relative enzyme activity in [1] was found to be 0.88. In addition, the IC50 in the series listed under Homo sapiens [4] turned out to be 2630 nM. The molecule also yielded an area under the curve (AUC) with Rattus norvegicus [5] of 32.6 ng·h/mL. The same molecule registered an inhibition at 10 µM in the series listed under Homo sapiens [2] of 93%. This molecule had a Cmax in series [6] of 5.4 ng/mL. The Tmax in series [7] came out at 4.5 h.
In the case of `CN(C)CCCOc1cc(C(=O)Nc2cccc(-c3cnco3)c2)n(Cc2ccccc2)n1`, the Relative enzyme activity in [1] was found to be 0.71. Besides, in the series listed under Homo sapiens [2], at 10 µM the inhibition was 83%.
In [3], `CN(C)CCCOc1cc(C(=O)Nc2ccc(Br)cc2)n(Cc2ccccc2)n1` had a bioavailability of 17%. In series [1], this molecule returned a Relative enzyme activity of 0.87. The molecule also registered an IC50 in the series listed under Homo sapiens [4] of 3580 nM. In the series with Rattus norvegicus [5], this molecule displayed an AUC of 76.9 ng·h/mL. Also, 10 µM produced 90% inhibition in the series listed under Homo sapiens [2]. Besides, the concentration in [6] peaked (Cmax) at 12.1 ng/mL. For the same molecule, in series [7], the Tmax came out at 5 h.
With `CN(C)CCCOc1cc(C(=O)Nc2cccc(F)c2)n(Cc2ccccc2)n1`, in series [1], the Relative enzyme activity worked out at 0.87. The molecule further had an inhibition at 10 µM in the series filed under Homo sapiens [2] of 95%.
For `CN(C)CCCOc1nn(Cc2ccccc2)c2ccccc12` [BENZYDAMINE], the concentration giving a half-maximal response (EC50) – broadly, the midpoint of the concentration-response curve – in series [12] turned out to be 1020 nM.

Source of the values: ChEMBL document CHEMBL1134419, “Solution-Phase parallel synthesis of 5-carboxamido 1-benzyl-3-(3-dimethylaminopropyloxy)-1H-pyrazoles as activators of soluble guanylate cyclase with improved oral bioavailability” (Bioorg Med Chem Lett, 2001).
